Laboratory results: US20220169598A1, “HALOGENATED PHENYLSULFONAMIDE HYDROXAMIC ACID COMPOUNDS, COMPOSITIONS AND USES THEREOF AS SELECTIVE HDAC6 INHIBITORS” (2681603 ONTARIO INC., priority 2019, published 2022)

Experiments:
[1] = biological target: HDAC1 (Homo sapiens, UniProt Q13547); experiment: in vitro activity-based HDAC assay; format: biochemical; details: human HDAC isoform panel, Table 1
[2] = biological target: HDAC3 (Homo sapiens, UniProt O15379); experiment: in vitro activity-based HDAC assay; format: biochemical; details: human HDAC isoform panel, Table 1
HDAC3, sequence (O15379 whole entry, canonical isoform): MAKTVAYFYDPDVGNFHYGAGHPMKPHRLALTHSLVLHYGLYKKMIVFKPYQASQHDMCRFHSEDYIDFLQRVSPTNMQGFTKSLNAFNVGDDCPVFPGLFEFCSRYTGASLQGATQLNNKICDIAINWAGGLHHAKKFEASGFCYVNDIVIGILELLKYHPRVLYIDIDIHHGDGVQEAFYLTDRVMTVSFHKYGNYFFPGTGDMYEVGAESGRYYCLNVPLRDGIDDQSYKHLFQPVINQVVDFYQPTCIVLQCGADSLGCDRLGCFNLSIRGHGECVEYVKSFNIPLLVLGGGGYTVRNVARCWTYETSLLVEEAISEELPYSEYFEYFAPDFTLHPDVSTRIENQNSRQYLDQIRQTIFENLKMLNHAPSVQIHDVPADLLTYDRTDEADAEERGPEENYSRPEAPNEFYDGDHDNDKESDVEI
HDAC3, sequence (Q9Y618 395-489 partner limits assumed): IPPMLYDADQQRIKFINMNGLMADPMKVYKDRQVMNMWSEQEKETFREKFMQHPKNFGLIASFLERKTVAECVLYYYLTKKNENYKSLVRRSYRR

[3] = Plasma stability by LC-MS; format: in vitro ADME; details: mouse plasma
Procedure: The stability of select compounds of the application in plasma was assessed quantitatively through LC-MS and the results are shown in Table 6.

HDAC1, sequence (Q13547 whole entry, canonical isoform): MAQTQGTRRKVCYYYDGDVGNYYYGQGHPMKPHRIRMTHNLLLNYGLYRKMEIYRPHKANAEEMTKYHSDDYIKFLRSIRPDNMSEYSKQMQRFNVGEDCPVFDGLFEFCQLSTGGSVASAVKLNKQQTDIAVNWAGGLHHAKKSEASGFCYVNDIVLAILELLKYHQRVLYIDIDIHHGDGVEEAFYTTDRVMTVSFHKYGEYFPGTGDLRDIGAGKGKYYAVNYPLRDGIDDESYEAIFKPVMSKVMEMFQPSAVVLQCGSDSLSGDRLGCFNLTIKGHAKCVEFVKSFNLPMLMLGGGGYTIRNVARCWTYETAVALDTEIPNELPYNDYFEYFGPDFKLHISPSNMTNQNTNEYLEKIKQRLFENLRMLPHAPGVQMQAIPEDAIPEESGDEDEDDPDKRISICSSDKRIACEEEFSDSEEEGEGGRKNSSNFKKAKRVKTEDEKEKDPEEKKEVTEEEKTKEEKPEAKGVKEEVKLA

| Compound | IC50 [1] [nM] | IC50 [2] [nM] | half-life [3] [h] | Remaining Percentage (%) 0 min ([3]; 0 min) [%] | Remaining Percentage (%) 15 min ([3]; 15 min) [%] | Remaining Percentage (%) 30 min ([3]; 30 min) [%] | Remaining Percentage (%) 45 min ([3]; 45 min) [%] | Remaining Percentage (%) 60 min ([3]; 60 min) [%] | Remaining Percentage (%) 120 min ([3]; 120 min) [%] |
| --- | --- | --- | --- | --- | --- | --- | --- | --- | --- |
| O=C(NO)c1ccc(CN(C2CC2)S(=O)(=O)c2cc(F)c(F)c(F)c2F)cc1 [Compound I-13, 4-((N-cyclopropyl-2,3,4,5-tetrafluorophenylsulfonamido)methyl)-N-hydroxybenzamide] | > 1000 |  |  |  |  |  |  |  |  |
| O=C(NO)c1ccc(CN(Cc2cccnc2)S(=O)(=O)c2cc(F)c(F)c(F)c2F)cc1 [Compound I-18, N-hydroxy-4-((2,3,4,5-tetrafluoro-N-(pyridin-3-ylmethyl)phenylsulfonamido)methyl)benzamide] |  | 373 | 1.82 | 100 | 96.3 | 63.0 | 54.3 | 51.3 | 50.1 |
